# From patent publication US20040266811A1, “Methods for inducing regeneration, remyelination, and hypermyelination of nervous tissue” (priority 2002, published 2004)
# Where “and” joins values, the source holds several entries; their conditions need not be identical. Equal entries are not always repeated. Entries after “also recorded” stand apart in the source; their conditions may differ.
# Assays:
# [1] = tested on: Schwann cells; test: cDNA-array analysis of Schwann cell gene expression; type: cell-based, Sprague-Dawley rats
# Description: To generate primary Schwann cells, neonatal Sprague-Dawley rats were sacrificed by decapitation, and 2-cm segments (approximately) of sciatic nerve were excised and placed in ice-cold PBS. Following removal of the epineurium, the nerves were pooled and placed in Hank's balanced salt solution containing 0.1% trypsin for 30 min at 37° C. Subsequently, partially-dissociated cells were plated onto polylysine/laminin-coated tissue culture plates, and enriched Schwann cells were further purified by the activation of anti-Thy 1.1 monoclonal antibodies and complement, in order to lyse proliferating fibroblasts (Wu and Weinstein, “Isolation and Purification of Primary Schwann Cells”, in Current Protocols in Neuroscience, Crawley et al., eds. (New York, N.Y.: John Wiley & Sons, 1999). The Schwann cells were maintained in DMEM containing 10% FCS supplemented with 50 ng/ml GGF and 2 μg/ml forskolin. However, these latter compounds were removed 48 h prior to the addition of immunophilin ligands. For the Schwann cell/PC12 co-cultures, monolayers of Schwann cells were prepared and overlaid with pCX-expressing PC12 cells, and cultures were incubated in the presence of either 100 ng/ml NGF or 1 μg/ml GM-284 for 48 h.
# To test the former hypothesis, the inventors starved Schwann cells of growth factor for 48 h, then treated the cells for either 4 h or 48 h with a 1-μM dose of GM-284. RNA was harvested from the treated cells and from control (vehicle-treated) Schwann cells, and then prepared for cDNA-array analysis. Experimental details of the preparation of the RNA, and the methods for conducting the hybridization, washing, and scanning, are posted at the following http website: //sequence.aecom.yu.edu/bioinf/funcgenomic.html.
# Total RNA was isolated, and prepared for cDNA microarray analysis as described (Peng et al., Microarray analysis of global changes in gene expression during cardiac myocyte differentiation. Physiol. Genomics, 9(3):145-55, 2002).
# [2] = tested on: crushed sciatic nerve; test: Sciatic nerve crush and regeneration (electron microscopy morphometry); type: in vivo, adult, outbred ICR mice
# Description: (A) The sciatic nerves of adult, outbred ICR mice were crushed, as previously described (Gondre et al., Accelerated nerve regeneration mediated by Schwann cells expressing a mutant form of the POU protein SCIP. J. Cell Biol., 141:493-501, 1998). Following the surgery, the animals were randomized into treatment groups of either GM-284 (10 mg/kg) or vehicle. At the end of 30 days, the animals were sacrificed, their sciatic nerves were prepared for electron microscopy, and subsequently evaluated for the extent of both axonal and myelin regeneration. All sampling was done at the same proximal-distal levels, and approximately 5 mm below the crush site. […] (B) Quantitative analysis of both axonal and myelin growth in response to GM-284 treatment was carried out by digitizing the images in (A), and determining the axonal and myelin volumes, calculated in voxels.
# Mice were anesthetized (i.p.) with 0.5 cc of 2.5% Avertin/saline, before perfusion via the left ventricle. The animals were perfused for 30 min at 37° C., with a rat Ringer's solution containing heparin (2.0 ml/L; stock=10,000 units/ml) and 2% lidocaine (3.0 ml/L), followed by perfusion for 7-10 min with 2% glutaraldehyde/1% paraformaldehyde in 0.15 M sodium cacodylate, pH 7.2. Approximately 1 cm of sciatic nerve was dissected from the hind leg (from the hip to the knee), and split into 3 sections (proximal, medial, and distal). A 2-mm length was taken from each of the three sections, then immersion fixed. The primary fixation was carried out for 2-4 h total, at 4° C., with 2% glutaraldehyde/1% paraformaldehyde in 0.15 M sodium cacodylate buffer, pH 7.2. Tissues were rinsed 6 times, for 20 min each, then rinsed overnight at 4° C. in 0.15 M sodium cacodylate buffer, pH 7.2.
# Secondary fixation was carried out for 4 h at 4° C. in 1% osmium-tetroxide/1.5% potassium-ferrocyanide in 0.15 M sodium cacodylate buffer, pH 7.2. Tissues were rinsed 3 times, for 10 min each, in Millipore-filtered water at 4° C., then stained en bloc in 2% uranyl acetate (aq) at 4° C. for 1 h. At this point, the tissues were dehydrated once for 8 min in a graded ethanol series starting with water, 30%, 50%, 70%, 95%, and then dehydrated twice, for 10 min each, in 100% ethanol and then in propylene oxide. After dehydration, the nerve tissue was infiltrated with propylene oxide/Durcupan (Fluka Chemika-BioChemika, Ronkonkoma, N.Y.), in a 25/75 ratio, for 60 min at room temperature. This was followed by infiltration three times, for 120 min each, in Durcupan resin at room temperature. Sciatic nerves were flat-embedded in fresh Durcupan resin, and polymerized for 24-36 h at 65° C. 1-μM-thick sections were stained with Toluidine blue. Silver sections were cut on a Diatome diamond knife, and stained with 2% uranyl acetate for 30 min at room temperature, and with Reynold's lead citrate for 7 min. Thin sections were viewed at 60 kv, and photographed on a JEOL 100 CX conventional transmission electron microscope.
# Deep anesthesia was obtained with i.p. injection of Avertin. Electrophysiology recordings were obtained, as previously described (Bieri et al., Abnormal nerve conduction studies in mice expressing a mutant form of the POU transcription factor SCIP. J. Neurosci. Res., 50:821-28, 1997). Immediately afterward, the right sciatic nerve of each animal was exposed and crushed 2 times, for 30 sec each, using a #5 Dumont forceps. In brief, the skin was prepped bilaterally prior to electrophysiologic testing. […]
# [3] = 10 mg/kg daily, one month after crush
smiles,measurement,setting,value
CCC(C)(C)C(=O)C(=O)N1CCC[C@H]1c1nnc([C@@H]2CCCN2C(=O)C(=O)C(C)(C)CC)o1 [GM-284],ESTs upregulated,"[1]; 1 μM GM-284, 4 hours",15
same,Known genes upregulated,"[1]; 1 μM GM-284, 4 hours",11
same,Selected upregulated genes,"[1]; 1 μM GM-284, 4 hours",Cytokeratin 19 and Fibrillin 2 (fbn2) and IFNγ inducible and CD14 and Estradiol dehydrogenase
same,Total upregulated genes,"[1]; 1 μM GM-284, 4 hours",26
same,ESTs upregulated,"[1]; 1 μM GM-284, 48 hours",77
same,Known genes upregulated,"[1]; 1 μM GM-284, 48 hours",32
same,Total upregulated genes,"[1]; 1 μM GM-284, 48 hours",109
same,increase in myelin (volume in voxels),[2]; [3],~3 fold
same,increase in the size of myelinated axons,[2]; [3],3- to 4 fold and 4 fold
same,histology of regenerated sciatic nerve,"[2]; 10 mg/kg daily, one month after crush, electron microscopy","induced both axonal hypertrophy and a global over-elaboration of the myelin organelle; also recorded: enhanced axonal regeneration; also recorded: clear axonal hypertrophy, as well as hypermyelination; also recorded: hypermyelination and axonal hypertrophy"
same,ratio of axonal volume to myelin volume,"[2]; GM-284-treated group, NIH Image",0.2
same,"increase in myelin volume, relative to each axon","[2]; vs vehicle, p<0.0001",20 fold
